These results are taken from publication PMC2757182 (The Journal of Biological Chemistry, 2009).

Common to all, as to assay: tryptophan fluorescence quenching
Common to all, as to type: binding

For experiment [1], the target named is T1, GUN4 Δ1–69 (GENOMES UNCOUPLED 4) (Arabidopsis thaliana, UniProt Q9LX31).
T1 sequence (Q9LX31 70-265): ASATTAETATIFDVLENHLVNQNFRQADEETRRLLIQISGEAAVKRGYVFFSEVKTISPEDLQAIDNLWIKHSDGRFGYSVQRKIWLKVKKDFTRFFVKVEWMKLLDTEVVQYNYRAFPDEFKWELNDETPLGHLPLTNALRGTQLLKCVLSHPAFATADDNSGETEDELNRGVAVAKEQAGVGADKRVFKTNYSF

For experiment [2], the target named is T2, GUN4 Δ1–69 (GENOMES UNCOUPLED 4) (Arabidopsis thaliana, UniProt Q9LX31, R211A).
T2 sequence (Q9LX31 70-265 R211A): T1 sequence (Q9LX31 70-265) with R142A

For experiment [3], the target named is T3, GUN4 Δ1–69 (GENOMES UNCOUPLED 4) (Arabidopsis thaliana, UniProt Q9LX31, V123A).
T3 sequence (Q9LX31 70-265 V123A): T1 sequence (Q9LX31 70-265) with V54A

The target in experiment [4] is T4, GUN4 Δ1–69 (GENOMES UNCOUPLED 4) (Arabidopsis thaliana, UniProt Q9LX31, F191A).
T4 sequence (Q9LX31 70-265 F191A): T1 sequence (Q9LX31 70-265) with F122A

Changes are numbered by the printed parent chain.

In experiment [1], `CC1=C(CCC(=O)O)c2cc3nc(cc4[nH]c(cc5[nH]c(cc1n2)c(C)c5CCC(=O)O)c(CCC(=O)O)c4C)C(CCC(=O)O)=C3C` [Coproporphyrin III] gave a dissociation constant Kd of 15 ± 0.82 µM.

Turning to `CC1=C(CCC(=O)O)c2cc3nc(cc4[nH]c(cc4C)cc4[nH]c(cc1n2)cc4C)C(C)=C3CCC(=O)O` [DPIX], the dissociation constant (Kd) in experiment [2] worked out at 14 ± 0.83 µM; in experiment [3], 9.6 ± 0.44 µM; in experiment [1], 6.4 ± 0.21 µM; in experiment [4], 12 ± 0.77 µM.

With `C=CC1=C(C)C2=Cc3c(C=C)c(C)c4[n]3[Fe]([Cl])[n]3c(c(C)c(CCC(=O)O)c3=CC3=NC(=C4)C(C)=C3CCC(=O)O)=CC1=N2` [Hemin], the equilibrium dissociation constant (Kd) in experiment [1] came to 8.1 ± 0.75 µM.

Regarding `C=CC1=C(C)c2cc3[nH]c(cc4nc(cc5[nH]c(cc1n2)c(C)c5CCC(=O)O)C(CCC(=O)O)=C4C)c(C)c3C=C` [PPIX], the affinity in experiment [1], expressed as Kd, was 11 ± 0.5 µM.

For the compound `C=Cc1c(C)c2cc3nc(c4c5[nH]c(cc6nc(cc1[nH]2)C(C)=C6CC)c(C)c5C(=O)[C@@H]4C(=O)OC)[C@@H](CCC(=O)O)[C@@H]3C` [Pheophorbide a], binding in experiment [1] was characterised by a dissociation constant (Kd) of 3.8 ± 0.33 µM.

Take `O=C(O)CCC1=C(CC(=O)O)c2cc3[nH]c(cc4nc(cc5[nH]c(cc1n2)c(CC(=O)O)c5CCC(=O)O)C(CCC(=O)O)=C4CC(=O)O)c(CC(=O)O)c3CCC(=O)O` [Uroporphyrin III]: in experiment [1], the dissociation constant (Kd) is 10 ± 0.57 µM.

A word on the Kd: it is the concentration at which binding is half-saturated. Read a low Kd as tighter binding.
